Assay results: US20240398828A1, “HETERO-ATOM CONTAINING COMPOUNDS AND USES THEREOF” (Kumquat Biosciences Inc., priority 2021, published 2024)

Key:
PTPN2 (i.e., TC-PTP) = target: T1, PTPN2 (i.e., TC-PTP) (Homo sapiens, UniProt P17706); test: Phosphatase activity assay (DiFMUP substrate), PTPN2; type: biochemical; conditions: compounds binned ≤1 uM or >1 uM
T1 sequence (P17706 1-415): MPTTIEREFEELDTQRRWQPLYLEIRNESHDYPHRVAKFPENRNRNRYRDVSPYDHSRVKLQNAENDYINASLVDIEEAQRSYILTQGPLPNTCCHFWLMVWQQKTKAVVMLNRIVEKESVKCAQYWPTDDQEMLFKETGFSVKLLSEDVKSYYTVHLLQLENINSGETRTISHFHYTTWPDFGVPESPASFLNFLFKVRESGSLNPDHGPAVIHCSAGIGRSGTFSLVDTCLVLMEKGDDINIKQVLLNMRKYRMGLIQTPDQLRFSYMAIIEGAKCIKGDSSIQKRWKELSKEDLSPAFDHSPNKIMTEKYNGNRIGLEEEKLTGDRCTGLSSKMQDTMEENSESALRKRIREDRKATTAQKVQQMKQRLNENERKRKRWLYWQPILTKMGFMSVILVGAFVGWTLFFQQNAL
Procedure, shortened: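 RT, HEPES pH 7.5 buffer with DTT/Tween-20. 10-point inhibitor series premixed ~2 min with enzyme (PTPN2 0.025 ng/ul). Start with DiFMUP at enzyme Km (~45 μM for PTPN2). Read DiFMU ex360/em450 continuously 15–30 min; initial rate vs concentration, 4-parameter fit → IC50.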

PTPN1 (i.e., PTP1B) = target: T2, PTPN1 (i.e., PTP1B) (Homo sapiens, UniProt P18031); test: Phosphatase activity assay (DiFMUP substrate), PTP1B; type: biochemical; conditions: compounds binned ≤1 uM or >1 uM
T2 sequence (P18031 1-435): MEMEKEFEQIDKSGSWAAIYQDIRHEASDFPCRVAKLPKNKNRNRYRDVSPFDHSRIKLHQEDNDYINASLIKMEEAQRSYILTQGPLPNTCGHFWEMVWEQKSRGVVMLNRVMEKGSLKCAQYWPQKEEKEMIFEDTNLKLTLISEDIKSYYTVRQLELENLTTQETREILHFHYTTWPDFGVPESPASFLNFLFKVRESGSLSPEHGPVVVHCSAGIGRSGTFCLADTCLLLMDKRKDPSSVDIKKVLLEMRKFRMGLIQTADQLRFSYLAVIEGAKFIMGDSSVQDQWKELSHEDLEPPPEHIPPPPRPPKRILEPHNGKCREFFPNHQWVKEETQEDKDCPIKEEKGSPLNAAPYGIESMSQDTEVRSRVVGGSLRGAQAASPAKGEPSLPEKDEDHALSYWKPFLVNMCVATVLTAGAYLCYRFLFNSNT
Procedure, shortened: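 First, serially diluted inhibitor is mixed about 2 minutes with enzyme in pH 7.5 HEPES/NaCl/EDTA/DTT/Tween-20 buffer. Next, DiFMUP is added at the enzyme's Km, approximately 45 μM for PTPN2. Finally, DiFMU appearance is read continuously at room temperature and rates are fitted for IC50.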

| IC50 (PTPN2 (i.e., TC-PTP)) | IC50 (PTPN1 (i.e., PTP1B)) | Compound |
| --- | --- | --- |
| ≤ 1000 nM | ≤ 1000 nM | Cc1n[nH]c(-c2ccc(O)c(N3CC(=O)NS3(=O)=O)c2F)c1C [Compound 375, 5-(3-(3,4-dimethyl-1H-pyrazol-5-yl)-2-fluoro-6-hydroxyphenyl)-1,2,5-thiadiazolidin-3-one 1,1-dioxide] |
| ≤ 1000 nM | ≤ 1000 nM | CS(=O)(=O)NC1CC=C(c2ccc(O)c(N3CC(=O)NS3(=O)=O)c2F)CC1 (stereo not shown) [Compound 363, N-(3′-(1,1-dioxido-4-oxo-1,2,5-thiadiazolidin-2-yl)-2′-fluoro-4′-hydroxy-2,3,4,5-tetrahydro-[1,1′-biphenyl]-4-yl)methanesulfonamide] |
| ≤ 1000 nM | ≤ 1000 nM | O=C1CN(c2c(O)ccc(-c3ccc4cccnc4c3)c2F)S(=O)(=O)N1 [Compound 138, 5-(2-fluoro-6-hydroxy-3-(quinolin-7-yl)phenyl)-1,2,5-thiadiazolidin-3-one 1,1-dioxide] |
| ≤ 1000 nM | ≤ 1000 nM | Cn1nc(-c2ccc(O)c(N3CC(=O)NS3(=O)=O)c2F)cc1CCC1CC1 [Compound 463, 5-(3-(5-(2-cyclopropylethyl)-1-methyl-1H-pyrazol-3-yl)-2-fluoro-6-hydroxyphenyl)-1,2,5-thiadiazolidin-3-one 1,1-dioxide] |
| ≤ 1000 nM | ≤ 1000 nM | O=C1CN(c2c(O)ccc(-c3c[nH]c(CCC4CC4)c3)c2F)S(=O)(=O)N1 [Compound 257, 5-(3-(5-(2-cyclopropylethyl)-1H-pyrrol-3-yl)-2-fluoro-6-hydroxyphenyl)-1,2,5-thiadiazolidin-3-one 1,1-dioxide] |
| ≤ 1000 nM | ≤ 1000 nM | CNC(=O)n1nc(-c2ccc(O)c(N3CC(=O)NS3(=O)=O)c2F)cc1C1CC1 [Compound 543, 5-cyclopropyl-3-(3-(1,1-dioxido-4-oxo-1,2,5-thiadiazolidin-2-yl)-2-fluoro-4-hydroxyphenyl)-N-methyl-1H-pyrazole-1-carboxamide] |
| ≤ 1000 nM | ≤ 1000 nM | O=C1CN(c2c(O)ccc(-c3cnc(NS(=O)(=O)C4CC4)nc3)c2F)S(=O)(=O)N1 [Compound 234, N-(5-(3-(1,1-dioxido-4-oxo-1,2,5-thiadiazolidin-2-yl)-2-fluoro-4-hydroxyphenyl)pyrimidin-2-yl)cyclopropanesulfonamide] |
| ≤ 1000 nM | ≤ 1000 nM | NC(=O)Cn1nc(-c2ccc(O)c(N3CC(=O)NS3(=O)=O)c2F)cc1C1CC1 [Compound 229, 2-(5-cyclopropyl-3-(3-(1,1-dioxido-4-oxo-1,2,5-thiadiazolidin-2-yl)-2-fluoro-4-hydroxyphenyl)-1H-pyrazol-1-yl)acetamide] |
| ≤ 1000 nM | ≤ 1000 nM | O=C1CN(c2c(O)ccc(-c3cc(CCC4CCCCC4)n[nH]3)c2F)S(=O)(=O)N1 [Compound 455, 5-(3-(3-(2-cyclohexylethyl)-1H-pyrazol-5-yl)-2-fluoro-6-hydroxyphenyl)-1,2,5-thiadiazolidin-3-one 1,1-dioxide] |
| ≤ 1000 nM | ≤ 1000 nM | O=C1CN(c2c(O)ccc(-c3cc(C4CCC4)n[nH]3)c2F)S(=O)(=O)N1 [Compound 281, 5-(3-(3-cyclobutyl-1H-pyrazol-5-yl)-2-fluoro-6-hydroxyphenyl)-1,2,5-thiadiazolidin-3-one 1,1-dioxide] |
| > 1000 nM | > 1000 nM | CC1NCC=C1c1ccc(O)c(N2CC(=O)NS2(=O)=O)c1F (stereo not shown) [Compound 512, 5-(2-fluoro-6-hydroxy-3-(2-methyl-2,5-dihydro-1H-pyrrol-3-yl)phenyl)-1,2,5-thiadiazolidin-3-one 1,1-dioxide] |
| ≤ 1000 nM | ≤ 1000 nM | O=C1CN(c2c(O)ccc(-c3cnn(C4CC4)c3)c2F)S(=O)(=O)N1 [Compound 133, 5-(3-(1-cyclopropyl-1H-pyrazol-4-yl)-2-fluoro-6-hydroxyphenyl)-1,2,5-thiadiazolidin-3-one 1,1-dioxide] |
| ≤ 1000 nM | ≤ 1000 nM | O=C1CN(c2c(O)ccc(-c3cccc(N4CCCC4)c3)c2F)S(=O)(=O)N1 [Compound 122, 5-(2-fluoro-4-hydroxy-3′-(pyrrolidin-1-yl)-[1,1′-biphenyl]-3-yl)-1,2,5-thiadiazolidin-3-one 1,1-dioxide] |
| ≤ 1000 nM | ≤ 1000 nM | O=C1CN(c2c(O)ccc(-c3ncc(C4CC4)[nH]3)c2F)S(=O)(=O)N1 [Compound 347, 5-(3-(5-cyclopropyl-1H-imidazol-2-yl)-2-fluoro-6-hydroxyphenyl)-1,2,5-thiadiazolidin-3-one 1,1-dioxide] |
| ≤ 1000 nM | ≤ 1000 nM | N#Cc1cccc(-n2cnc(-c3ccc(O)c(N4CC(=O)NS4(=O)=O)c3F)c2)c1 [Compound 361, 3-(4-(3-(1,1-dioxido-4-oxo-1,2,5-thiadiazolidin-2-yl)-2-fluoro-4-hydroxyphenyl)-1H-imidazol-1-yl)benzonitrile] |
| ≤ 1000 nM | ≤ 1000 nM | O=C1CN(c2c(O)ccc(-c3cc(C(=O)N4CCOCC4)n[nH]3)c2F)S(=O)(=O)N1 [Compound 336, 5-(2-fluoro-6-hydroxy-3-(3-(morpholine-4-carbonyl)-1H-pyrazol-5-yl)phenyl)-1,2,5-thiadiazolidin-3-one 1,1-dioxide] |
| ≤ 1000 nM | ≤ 1000 nM | O=C1CN(c2c(O)ccc(-c3cn(-c4ccc(F)cc4)cn3)c2F)S(=O)(=O)N1 [Compound 209, 5-(2-fluoro-3-(1-(4-fluorophenyl)-1H-imidazol-4-yl)-6-hydroxyphenyl)-1,2,5-thiadiazolidin-3-one 1,1-dioxide] |
| ≤ 1000 nM | ≤ 1000 nM | C[C@@H]1C=C(c2ccc(O)c(N3CC(=O)NS3(=O)=O)c2F)CN1 [Compound 483, (R)-5-(2-fluoro-6-hydroxy-3-(5-methyl-2,5-dihydro-1H-pyrrol-3-yl)phenyl)-1,2,5-thiadiazolidin-3-one 1,1-dioxide] |
| ≤ 1000 nM | ≤ 1000 nM | CC(N)c1cc(-c2ccc(O)c(N3CC(=O)NS3(=O)=O)c2F)[nH]n1 (stereo not shown) [Compound 297, 5-(3-(3-(1-aminoethyl)-1H-pyrazol-5-yl)-2-fluoro-6-hydroxyphenyl)-1,2,5-thiadiazolidin-3-one 1,1-dioxide] |
| ≤ 1000 nM | ≤ 1000 nM | N#Cc1ccc(-n2cnc(-c3ccc(O)c(N4CC(=O)NS4(=O)=O)c3F)c2)cc1F [Compound 287, 4-(4-(3-(1,1-dioxido-4-oxo-1,2,5-thiadiazolidin-2-yl)-2-fluoro-4-hydroxyphenyl)-1H-imidazol-1-yl)-2-fluorobenzonitrile] |
| ≤ 1000 nM | ≤ 1000 nM | O=C1CN(c2c(O)ccc(-c3cn(C4CCS(=O)(=O)CC4)cn3)c2F)S(=O)(=O)N1 [Compound 412, 5-(3-(1-(1,1-dioxidotetrahydro-2H-thiopyran-4-yl)-1H-imidazol-4-yl)-2-fluoro-6-hydroxyphenyl)-1,2,5-thiadiazolidin-3-one 1,1-dioxide] |
| ≤ 1000 nM | ≤ 1000 nM | O=C1CN(c2c(O)ccc(-c3nnc(C4CC4)[nH]3)c2F)S(=O)(=O)N1 [Compound 235, 5-(3-(5-cyclopropyl-4H-1,2,4-triazol-3-yl)-2-fluoro-6-hydroxyphenyl)-1,2,5-thiadiazolidin-3-one 1,1-dioxide] |
| ≤ 1000 nM | ≤ 1000 nM | CC(C)c1cc(-c2ccc(O)c(N3CC(=O)NS3(=O)=O)c2F)nn1C [Compound 447, 5-(2-fluoro-6-hydroxy-3-(5-isopropyl-1-methyl-1H-pyrazol-3-yl)phenyl)-1,2,5-thiadiazolidin-3-one 1,1-dioxide] |
| ≤ 1000 nM | ≤ 1000 nM | CC(C)c1cc(-c2ccc(O)c(N3CC(=O)NS3(=O)=O)c2F)[nH]n1 [Compound 379, 5-(2-fluoro-6-hydroxy-3-(3-isopropyl-1H-pyrazol-5-yl)phenyl)-1,2,5-thiadiazolidin-3-one 1,1-dioxide] |
| ≤ 1000 nM | ≤ 1000 nM | O=C1CN(c2c(O)ccc(C3=CCN(CC(F)F)C3)c2F)S(=O)(=O)N1 [Compound 521, 5-(3-(1-(2,2-difluoroethyl)-2,5-dihydro-1H-pyrrol-3-yl)-2-fluoro-6-hydroxyphenyl)-1,2,5-thiadiazolidin-3-one 1,1-dioxide] |

| Compound | IC50 (PTPN2 (i.e., TC-PTP)) | IC50 (PTPN1 (i.e., PTP1B)) |
| --- | --- | --- |
| O=C1CN(c2c(O)ccc(C3=CCN(C4CC4)CC3)c2F)S(=O)(=O)N1 [Compound 316, 5-(3-(1-cyclopropyl-1,2,3,6-tetrahydropyridin-4-yl)-2-fluoro-6-hydroxyphenyl)-1,2,5-thiadiazolidin-3-one 1,1-dioxide] | ≤ 1000 nM | ≤ 1000 nM |
